Consider two compounds from patent US11047861B2, “Cellular assays with a molecular endpoint measured by SAMDI mass spectrometry” (NORTHWESTERN UNIVERSITY, priority 2015, dated 2021).

Test [1] relates to protein tyrosine phosphatase (PTP). Put plainly: TCAL-SAMDI assay of PTP activity, inhibitors applied to cells cultured on the monolayer. Format: cell-based. The method, then: HeLa cells and MDA-MB-231 cells were obtained from ATCC and cultured in αMEM (for HeLa cells) or high-glucose DMEM (for MDA-MB-231 cells) medium supplemented with 10% fetal bovine serum, glutamax, penicillin and streptomycin. All cells were cultured in a humidified incubator at 37° C. and CO2. Cells were trypsinized and suspended in media, and the average number of cells per μL was counted using a hemocytometer and Countess automated cell counter (Life Technologies), and cell concentrations were adjusted to seed the desired number of cells per spot in 3 μL media. Cells were cultured on the monolayers presenting RGD and peptide substrates on steel plates or glass slides for two hours under standard growth conditions. For PTP activity assays, cells were cultured for two hours before addition of inhibitors, if any. […] A 30 mg/mL solution of 2,4,6-trihydroxyacetophenone in acetone was delivered to each spot on the array and the surfaces were analyzed using an AB Sciex 5800 MALDI TOF/TOF instrument in positive reflector mode. The area under the curves for the [M+H]^+ peaks of disulfides was measured with the Data Explorer software (AB Sciex). […]
MDA-MB-231 cells were seeded at 75 cells per spot on monolayers presenting phosphatase peptide substrates and cyclic RGD as described above. […] IC50 values and curves were determined using GraphPad prism software.

The test system is the same in test [2]. Put plainly: SAMDI assay of PTP activity in cell lysate treated with inhibitor and applied to the monolayer. It counts as biochemical. Particulars: treatment of MDA-MB-231 cell lysate (rather than cells), read-out: PTP inhibition, IC50. The method, then: MDA-MB-231 cells were lysed using the lysis buffer containing protease inhibitor described above to achieve the equivalent of 75 cells per 1.5 μL, after mixing with inhibitor solutions. Inhibitor solutions in lysis buffer at concentrations ranging from 0 to 640 μM were added to the lysate and 1.5 μL of the mixture was spotted on monolayers presenting cyclic RGD and phosphatase substrate. The reaction was carried out for 1 hour at 37° C. in a humidified chamber. To evaluate dose-response inhibition under standard culture conditions, MDA-MB-231 cells were plated on a 96-well plate at a density of 6,400 cells per well and cultured for two hours. Culture medium containing inhibitors at final concentrations ranging from 0 to 300 μM and 1% DMSO were delivered to each well and culture proceeded for another two hours. The mixture containing media and inhibitor was removed from each well and centrifuged. Lysis buffer containing protease inhibitor was applied to each well in the plate and incubated for 10 minutes at room temperature. The lysate was collected and added to the corresponding cell pellet for each inhibitor concentration sample. […] Protein concentrations were measured using a BCA assay (Santa Cruz Biotechnology), following manufacturer instructions. […] IC50 values and curves were determined using GraphPad prism software.

Broadly, the IC50 is the point on the concentration scale where inhibition reaches its midpoint. For the compound `O=C1C(=NNc2ccc(S(=O)(=O)O)cc2)C(c2ccc([N+](=O)[O-])cc2)=NN1c1ccccc1` [PHPS1], the PTP inhibition entry in test [1] (treatment of cells, inhibitor concentration up to 160 μM) is on record as “did not show PTP inhibition”. In addition, the IC50 in test [2] was determined as 75 µM.
`O=C(CBr)c1ccc(O)cc1` [PTPI-I]: the IC50 came out at 14 µM in test [1] (treatment of cultured MDA-MB-231 cells on monolayer for two hours, then lysis in place, read-out: inhibition of PTP activity, IC50) and 83 µM in test [2].
